Converted amounts (≈) assume the structure as drawn.
Test system: Liver microsomes
Experiment: Intrinsic clearance in human liver microsomes
Type: ADME, Microsome
Conditions: not given

| SMILES | Intrinsic clearance [µL/min/mg] |
| --- | --- |
| COCc1nc2nc(C)cc(Nc3ccc(C(F)(F)F)cc3)n2n1 | 6.7 |
| CSc1nc2nc(C)cc(Nc3ccc(S(F)(F)(F)(F)F)cc3)n2n1 | 22.4 |
| Cc1cc(Nc2ccc(S(F)(F)(F)(F)F)cc2)n2nc(C(F)(F)F)nc2n1 | < 5 |
| CCc1nc2nc(C)cc(Nc3cccc(Cl)c3)n2n1 | 78.3 |
| Cc1cc(Nc2cccc(Cl)c2)n2nc(C(C)(F)F)nc2n1 | 44.4 |
| COCCc1nc2nc(C)cc(Nc3ccc(C(F)(F)F)cc3)n2n1 | 9 |
| COCCc1nc2nc(C)cc(Nc3ccc(S(F)(F)(F)(F)F)cc3)n2n1 | 11.5 |
| Cc1cc(Nc2ccc(C(F)(F)F)cc2)n2nc(CCO)nc2n1 | < 5 |
| Cc1cc(Nc2ccc(C(F)(F)F)cc2)n2nc(C(F)(F)F)nc2n1 | < 5 |

Test system: not listed separately
Experiment: Inhibition of Plasmodium berghei C-terminal hexa-His tagged DHODH expressed in Escherichia coli by DCIP reduction assay
Conditions: not given

| SMILES | IC50 [nM] |
| --- | --- |
| COc1nc2nc(C)cc(Nc3cccc(Cl)c3)n2n1 | 1300 |
| Cc1cc(Nc2ccc(S(F)(F)(F)(F)F)cc2)n2nc(C(C)C)nc2n1 | 3800 |
| COCc1nc2nc(C)cc(Nc3ccc(C(F)(F)F)cc3)n2n1 | 5500 |
| Cc1cc(Nc2ccc(S(F)(F)(F)(F)F)cc2)n2nc(C(C)(C)C)nc2n1 | 16000 |
| Cc1cc(Nc2cccc(Cl)c2)n2nc(C(C)C)nc2n1 | 570 |
| Cc1cc(Nc2ccc(C(F)(F)F)cc2)n2nc(C(C)C)nc2n1 | 4500 |
| CSc1nc2nc(C)cc(Nc3ccc(S(F)(F)(F)(F)F)cc3)n2n1 | > 10000 |
| Cc1cc(Nc2cccc(Cl)c2)n2nc(C3CC3)nc2n1 | 1700 |
| CCC(F)(F)c1nc2nc(C)cc(Nc3ccc(Cl)cc3)n2n1 | 1800 |
| CCC(C)c1nc2nc(C)cc(Nc3ccc(S(F)(F)(F)(F)F)cc3)n2n1 (configuration not stated) | 4500 |
| Cc1cc(Nc2ccc(S(F)(F)(F)(F)F)cc2)n2nc(C(F)(F)F)nc2n1 | 2500 |
| Cc1cc(Nc2ccc(C(F)(F)F)cc2)n2nc(C(F)(F)F)nc2n1 | 1300 |

Test system: Plasma
Experiment: Plasma protein binding in human by chromatographic method
Type: ADME, cell-free
Conditions: not given

| SMILES | PPB [%] |
| --- | --- |
| COCc1nc2nc(C)cc(Nc3ccc(C(F)(F)F)cc3)n2n1 | 75.6 |
| CSc1nc2nc(C)cc(Nc3ccc(S(F)(F)(F)(F)F)cc3)n2n1 | 97.7 |
| CCc1nc2nc(C)cc(Nc3cccc(Cl)c3)n2n1 | 86.7 |
| Cc1cc(Nc2cccc(Cl)c2)n2nc(C(C)(F)F)nc2n1 | 88.2 |
| COCCc1nc2nc(C)cc(Nc3ccc(C(F)(F)F)cc3)n2n1 | 73.7 |
| COCCc1nc2nc(C)cc(Nc3ccc(S(F)(F)(F)(F)F)cc3)n2n1 | 87.7 |
| Cc1cc(Nc2ccc(C(F)(F)F)cc2)n2nc(CCO)nc2n1 | 67 |

Test system: Plasmodium falciparum
Experiment: Antimalarial activity against Plasmodium falciparum 3D7 by [3H]hypoxanthine incorporation assay in presence of human serum
Type: functional, organism-based
Conditions: not given

| SMILES | EC50 [nM] |
| --- | --- |
| COc1nc2nc(C)cc(Nc3cccc(Cl)c3)n2n1 | 980 |
| Cc1cc(Nc2ccc(S(F)(F)(F)(F)F)cc2)n2nc(C(C)C)nc2n1 | 420 |
| COCc1nc2nc(C)cc(Nc3ccc(C(F)(F)F)cc3)n2n1 | 1000 |
| Cc1cc(Nc2ccc(S(F)(F)(F)(F)F)cc2)n2nc(C(C)(C)C)nc2n1 | 2300 |
| Cc1cc(Nc2cccc(Cl)c2)n2nc(C(C)C)nc2n1 | 1100 |
| Cc1cc(Nc2ccc(C(F)(F)F)cc2)n2nc(C(C)C)nc2n1 | 98 |
| CSc1nc2nc(C)cc(Nc3ccc(S(F)(F)(F)(F)F)cc3)n2n1 | 32 |
| CCC(F)(F)c1nc2nc(C)cc(Nc3ccc(Cl)cc3)n2n1 | 94 |
| CCC(C)c1nc2nc(C)cc(Nc3ccc(S(F)(F)(F)(F)F)cc3)n2n1 (configuration not stated) | 510 |
| Cc1cc(Nc2ccc(S(F)(F)(F)(F)F)cc2)n2nc(C(F)(F)F)nc2n1 | 140 |
| CCc1nc2nc(C)cc(Nc3cccc(Cl)c3)n2n1 | 3300 |
| Cc1cc(Nc2cccc(Cl)c2)n2nc(C(C)(F)F)nc2n1 | 130 |
| COCCc1nc2nc(C)cc(Nc3ccc(C(F)(F)F)cc3)n2n1 | 4200 |
| COCCc1nc2nc(C)cc(Nc3ccc(S(F)(F)(F)(F)F)cc3)n2n1 | 5000 |
| Cc1cc(Nc2ccc(C(F)(F)F)cc2)n2nc(CCO)nc2n1 | 480 |
| Cc1cc(Nc2ccc(C(F)(F)F)cc2)n2nc(C(F)(F)F)nc2n1 | 73 |

Molecular target: Dihydroorotate dehydrogenase (quinone), mitochondrial (Homo sapiens, UniProt Q02127)
Sequence (Q02127 whole entry): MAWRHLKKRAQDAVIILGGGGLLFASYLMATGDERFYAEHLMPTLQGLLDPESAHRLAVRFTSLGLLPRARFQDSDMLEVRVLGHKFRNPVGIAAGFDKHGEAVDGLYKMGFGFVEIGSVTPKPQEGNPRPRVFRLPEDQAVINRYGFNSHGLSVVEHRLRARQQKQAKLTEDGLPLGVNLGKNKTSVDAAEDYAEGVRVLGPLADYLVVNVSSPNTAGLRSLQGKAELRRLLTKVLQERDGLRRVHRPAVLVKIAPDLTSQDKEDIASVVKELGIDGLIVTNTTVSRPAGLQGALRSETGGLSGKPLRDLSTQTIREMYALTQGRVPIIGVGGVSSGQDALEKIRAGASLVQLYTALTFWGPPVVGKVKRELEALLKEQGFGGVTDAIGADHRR
Conditions: not given

| SMILES | IC50 [nM] |
| --- | --- |
| Cc1cc(Nc2ccc(S(F)(F)(F)(F)F)cc2)n2nc(C(C)C)nc2n1 | > 100000 |
| Cc1cc(Nc2ccc(S(F)(F)(F)(F)F)cc2)n2nc(C(C)(C)C)nc2n1 | > 100000 |
| Cc1cc(Nc2ccc(C(F)(F)F)cc2)n2nc(C(C)C)nc2n1 | > 100000 |
| Cc1cc(Nc2cccc(Cl)c2)n2nc(C3CC3)nc2n1 | > 100000 |
| CCC(F)(F)c1nc2nc(C)cc(Nc3ccc(Cl)cc3)n2n1 | > 100000 |
| CCC(C)c1nc2nc(C)cc(Nc3ccc(S(F)(F)(F)(F)F)cc3)n2n1 (configuration not stated) | > 100000 |
| Cc1cc(Nc2ccc(C(F)(F)F)cc2)n2nc(C(F)(F)F)nc2n1 | > 100000 |

Test system: not listed separately
Experiment: Aqueous solubility of the compound at pH 6.5
Type: physicochemical
Conditions: not given

| SMILES | solubility [µM] |
| --- | --- |
| COCc1nc2nc(C)cc(Nc3ccc(C(F)(F)F)cc3)n2n1 | 150 (≈ 50.6 µg/mL) |
| CSc1nc2nc(C)cc(Nc3ccc(S(F)(F)(F)(F)F)cc3)n2n1 | 7.8 (≈ 3.1 µg/mL) |
| Cc1cc(Nc2ccc(S(F)(F)(F)(F)F)cc2)n2nc(C(F)(F)F)nc2n1 | 30 (≈ 12.6 µg/mL) |
| CCc1nc2nc(C)cc(Nc3cccc(Cl)c3)n2n1 | 170 (≈ 48.9 µg/mL) |
| Cc1cc(Nc2cccc(Cl)c2)n2nc(C(C)(F)F)nc2n1 | 77 (≈ 24.9 µg/mL) |
| COCCc1nc2nc(C)cc(Nc3ccc(C(F)(F)F)cc3)n2n1 | 71 (≈ 24.9 µg/mL) |
| COCCc1nc2nc(C)cc(Nc3ccc(S(F)(F)(F)(F)F)cc3)n2n1 | 31 (≈ 12.7 µg/mL) |
| Cc1cc(Nc2ccc(C(F)(F)F)cc2)n2nc(CCO)nc2n1 | 19 (≈ 6.41 µg/mL) |

Test system: not listed separately
Experiment: Lipophilicity, log D of the compound at pH 7.4
Type: physicochemical
Conditions: buffer

| SMILES | logD |
| --- | --- |
| COCc1nc2nc(C)cc(Nc3ccc(C(F)(F)F)cc3)n2n1 | 2.5 |
| CSc1nc2nc(C)cc(Nc3ccc(S(F)(F)(F)(F)F)cc3)n2n1 | 3.5 |
| Cc1cc(Nc2ccc(S(F)(F)(F)(F)F)cc2)n2nc(C(F)(F)F)nc2n1 | 3.7 |
| CCc1nc2nc(C)cc(Nc3cccc(Cl)c3)n2n1 | 2.8 |
| Cc1cc(Nc2cccc(Cl)c2)n2nc(C(C)(F)F)nc2n1 | 3 |
| COCCc1nc2nc(C)cc(Nc3ccc(C(F)(F)F)cc3)n2n1 | 2.7 |
| COCCc1nc2nc(C)cc(Nc3ccc(S(F)(F)(F)(F)F)cc3)n2n1 | 3 |
| Cc1cc(Nc2ccc(C(F)(F)F)cc2)n2nc(CCO)nc2n1 | 2.2 |

Molecular target: T1, Dihydroorotate dehydrogenase (Plasmodium falciparum, UniProt Q54A96)
T1 sequence (Q54A96 whole entry): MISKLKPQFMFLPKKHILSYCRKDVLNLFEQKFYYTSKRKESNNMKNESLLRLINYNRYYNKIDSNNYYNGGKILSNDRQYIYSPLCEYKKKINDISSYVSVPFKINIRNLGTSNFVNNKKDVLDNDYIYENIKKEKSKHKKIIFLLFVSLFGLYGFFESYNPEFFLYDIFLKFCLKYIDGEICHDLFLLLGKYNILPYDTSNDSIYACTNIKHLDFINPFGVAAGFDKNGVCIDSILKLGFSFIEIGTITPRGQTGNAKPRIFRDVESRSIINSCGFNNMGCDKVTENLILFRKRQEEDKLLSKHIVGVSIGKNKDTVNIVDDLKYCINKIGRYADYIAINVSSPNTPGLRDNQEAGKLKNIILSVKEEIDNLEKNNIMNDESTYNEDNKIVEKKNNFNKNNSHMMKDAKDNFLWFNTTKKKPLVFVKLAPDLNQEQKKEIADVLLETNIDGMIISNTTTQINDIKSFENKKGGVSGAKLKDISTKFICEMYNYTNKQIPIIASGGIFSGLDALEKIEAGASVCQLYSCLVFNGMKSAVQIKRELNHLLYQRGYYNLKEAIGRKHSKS
Conditions: not given

| SMILES | IC50 [nM] |
| --- | --- |
| Cc1cc(Nc2ccc(S(F)(F)(F)(F)F)cc2)n2nc(C(C)C)nc2n1 | 100 |
| COCc1nc2nc(C)cc(Nc3ccc(C(F)(F)F)cc3)n2n1 | 410 |
| Cc1cc(Nc2ccc(S(F)(F)(F)(F)F)cc2)n2nc(C(C)(C)C)nc2n1 | 550 |
| Cc1cc(Nc2cccc(Cl)c2)n2nc(C(C)C)nc2n1 | 120 |
| Cc1cc(Nc2ccc(C(F)(F)F)cc2)n2nc(C(C)C)nc2n1 | 110 |
| CSc1nc2nc(C)cc(Nc3ccc(S(F)(F)(F)(F)F)cc3)n2n1 | 30 |
| Cc1cc(Nc2cccc(Cl)c2)n2nc(C3CC3)nc2n1 | 820 |
| CCC(F)(F)c1nc2nc(C)cc(Nc3ccc(Cl)cc3)n2n1 | 34 |
| CCC(C)c1nc2nc(C)cc(Nc3ccc(S(F)(F)(F)(F)F)cc3)n2n1 (configuration not stated) | 330 |
| Cc1cc(Nc2ccc(S(F)(F)(F)(F)F)cc2)n2nc(C(F)(F)F)nc2n1 | 30 |
| CCc1nc2nc(C)cc(Nc3cccc(Cl)c3)n2n1 | 240 |
| Cc1cc(Nc2cccc(Cl)c2)n2nc(C(C)(F)F)nc2n1 | 54 |
| COCCc1nc2nc(C)cc(Nc3ccc(C(F)(F)F)cc3)n2n1 | 2500 |
| COCCc1nc2nc(C)cc(Nc3ccc(S(F)(F)(F)(F)F)cc3)n2n1 | 2500 |
| Cc1cc(Nc2ccc(C(F)(F)F)cc2)n2nc(CCO)nc2n1 | 930 |
| Cc1cc(Nc2ccc(C(F)(F)F)cc2)n2nc(C(F)(F)F)nc2n1 | 35 |

Test system: Liver
Experiment: Intrinsic clearance in mouse liver microsomes
Type: ADME, Microsome
Conditions: not given

| SMILES | Intrinsic clearance [µL/min/mg] |
| --- | --- |
| COCc1nc2nc(C)cc(Nc3ccc(C(F)(F)F)cc3)n2n1 | 13.3 |
| CSc1nc2nc(C)cc(Nc3ccc(S(F)(F)(F)(F)F)cc3)n2n1 | 107.5 |
| Cc1cc(Nc2ccc(S(F)(F)(F)(F)F)cc2)n2nc(C(F)(F)F)nc2n1 | < 6 |
| CCc1nc2nc(C)cc(Nc3cccc(Cl)c3)n2n1 | 125.4 |
| Cc1cc(Nc2cccc(Cl)c2)n2nc(C(C)(F)F)nc2n1 | 72.2 |
| COCCc1nc2nc(C)cc(Nc3ccc(C(F)(F)F)cc3)n2n1 | 14.3 |
| COCCc1nc2nc(C)cc(Nc3ccc(S(F)(F)(F)(F)F)cc3)n2n1 | 14.1 |
| Cc1cc(Nc2ccc(C(F)(F)F)cc2)n2nc(CCO)nc2n1 | 6.9 |
| Cc1cc(Nc2ccc(C(F)(F)F)cc2)n2nc(C(F)(F)F)nc2n1 | < 6 |

— ChEMBL document CHEMBL1955725, “Structure-guided lead optimization of triazolopyrimidine-ring substituents identifies potent Plasmodium falciparum dihydroorotate dehydrogenase inhibitors with clinical candidate potential” (J Med Chem, 2011)
